Measurements from PMC9067983, “Identification of highly selective type II kinase inhibitors with chiral peptidomimetic tails” (Journal of Enzyme Inhibition and Medicinal Chemistry, 2022).
Where a SMILES comes first, the peptide text is derived from it. [ ]: non-standard residue; d: D form. The star is where a group is joined. X1 = Cc1ccc(Nc2ncc3c(n2)N(C)C(=O)N(c2cc(C(=O)*)ccc2C)C3)cn1; Aib = CC(C)(N)C(=O)O

Key:
Abl1 = target: T1, Abl1 (Homo sapiens, UniProt P00519); assay: In vitro kinase assay (IC50); assay type: biochemical
T1 construct: purchased Reaction Biology Corp
T1 sequence (P00519 whole entry): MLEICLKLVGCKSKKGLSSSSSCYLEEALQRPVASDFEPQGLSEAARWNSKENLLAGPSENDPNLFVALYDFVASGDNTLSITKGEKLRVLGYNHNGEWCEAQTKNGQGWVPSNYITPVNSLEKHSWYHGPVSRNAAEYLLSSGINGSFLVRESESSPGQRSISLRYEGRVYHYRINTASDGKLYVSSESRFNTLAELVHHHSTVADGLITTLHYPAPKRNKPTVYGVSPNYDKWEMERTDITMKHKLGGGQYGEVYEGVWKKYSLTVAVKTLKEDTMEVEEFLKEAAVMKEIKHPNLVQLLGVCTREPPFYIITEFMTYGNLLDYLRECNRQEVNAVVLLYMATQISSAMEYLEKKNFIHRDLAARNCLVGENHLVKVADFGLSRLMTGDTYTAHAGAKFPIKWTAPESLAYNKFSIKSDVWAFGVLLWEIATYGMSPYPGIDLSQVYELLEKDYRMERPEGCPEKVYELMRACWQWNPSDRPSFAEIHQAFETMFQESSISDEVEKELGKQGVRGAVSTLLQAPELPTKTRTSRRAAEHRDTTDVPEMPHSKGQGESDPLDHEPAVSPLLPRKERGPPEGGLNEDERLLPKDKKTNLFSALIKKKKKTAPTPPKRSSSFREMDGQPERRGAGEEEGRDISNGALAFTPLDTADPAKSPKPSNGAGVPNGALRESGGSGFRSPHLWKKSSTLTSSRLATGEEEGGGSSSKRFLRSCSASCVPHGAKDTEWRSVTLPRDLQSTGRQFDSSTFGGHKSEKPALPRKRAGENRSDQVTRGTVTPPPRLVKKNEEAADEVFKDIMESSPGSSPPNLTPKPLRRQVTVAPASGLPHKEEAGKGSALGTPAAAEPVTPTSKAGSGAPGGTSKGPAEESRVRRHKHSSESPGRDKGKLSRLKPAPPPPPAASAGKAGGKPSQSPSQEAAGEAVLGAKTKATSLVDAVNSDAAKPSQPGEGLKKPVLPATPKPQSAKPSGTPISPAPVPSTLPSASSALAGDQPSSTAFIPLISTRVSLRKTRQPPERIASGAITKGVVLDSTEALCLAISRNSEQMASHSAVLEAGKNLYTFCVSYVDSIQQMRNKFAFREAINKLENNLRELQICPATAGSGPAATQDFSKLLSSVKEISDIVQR
Procedure: (§1) Full panel kinase profiling and kinase IC50 measurement were performed by using Reaction Biology Corp. (San Diego, USA).

Lck [1] = target: T2, Lck (Homo sapiens, UniProt P06239); assay: In vitro kinase assay (IC50); assay type: biochemical
T2 construct: purchased Reaction Biology Corp
T2 sequence (P06239 whole entry): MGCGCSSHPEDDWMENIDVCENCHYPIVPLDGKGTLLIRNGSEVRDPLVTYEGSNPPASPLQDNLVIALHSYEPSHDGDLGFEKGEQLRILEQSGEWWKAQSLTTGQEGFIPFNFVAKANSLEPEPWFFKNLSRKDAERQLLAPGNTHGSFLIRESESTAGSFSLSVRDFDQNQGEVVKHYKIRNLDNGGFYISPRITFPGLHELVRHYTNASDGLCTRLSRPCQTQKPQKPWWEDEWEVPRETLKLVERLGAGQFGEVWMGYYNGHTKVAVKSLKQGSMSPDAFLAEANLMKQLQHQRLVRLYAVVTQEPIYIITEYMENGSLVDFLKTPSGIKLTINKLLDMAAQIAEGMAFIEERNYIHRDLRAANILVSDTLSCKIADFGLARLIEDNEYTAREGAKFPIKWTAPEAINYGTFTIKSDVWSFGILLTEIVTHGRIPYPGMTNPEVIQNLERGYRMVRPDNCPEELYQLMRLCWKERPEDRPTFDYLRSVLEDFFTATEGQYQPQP
Procedure: as §1

c-Src = target: T3, c-Src (Homo sapiens, UniProt P12931); assay: In vitro kinase assay (IC50); assay type: biochemical
T3 construct: purchased Reaction Biology Corp
T3 sequence (P12931 whole entry): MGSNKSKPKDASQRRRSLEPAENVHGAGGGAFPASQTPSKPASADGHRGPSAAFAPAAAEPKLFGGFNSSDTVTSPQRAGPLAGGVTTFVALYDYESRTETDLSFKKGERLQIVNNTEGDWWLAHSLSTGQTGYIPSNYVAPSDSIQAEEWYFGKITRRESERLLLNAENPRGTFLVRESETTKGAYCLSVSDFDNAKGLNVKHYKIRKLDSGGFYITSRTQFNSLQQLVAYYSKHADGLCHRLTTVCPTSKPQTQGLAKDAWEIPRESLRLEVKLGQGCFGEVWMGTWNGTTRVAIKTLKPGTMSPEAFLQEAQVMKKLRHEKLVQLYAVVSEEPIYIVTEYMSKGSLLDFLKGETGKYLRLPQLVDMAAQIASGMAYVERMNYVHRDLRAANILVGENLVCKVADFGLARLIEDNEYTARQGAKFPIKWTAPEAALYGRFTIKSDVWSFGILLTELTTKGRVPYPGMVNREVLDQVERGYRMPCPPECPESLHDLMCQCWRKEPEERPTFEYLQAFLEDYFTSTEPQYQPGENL
Procedure: as §1

p38a = target: T4, p38a (Homo sapiens, UniProt Q16539); assay: In vitro kinase assay (IC50); assay type: biochemical
T4 construct: purchased Reaction Biology Corp
T4 sequence (Q16539 whole entry): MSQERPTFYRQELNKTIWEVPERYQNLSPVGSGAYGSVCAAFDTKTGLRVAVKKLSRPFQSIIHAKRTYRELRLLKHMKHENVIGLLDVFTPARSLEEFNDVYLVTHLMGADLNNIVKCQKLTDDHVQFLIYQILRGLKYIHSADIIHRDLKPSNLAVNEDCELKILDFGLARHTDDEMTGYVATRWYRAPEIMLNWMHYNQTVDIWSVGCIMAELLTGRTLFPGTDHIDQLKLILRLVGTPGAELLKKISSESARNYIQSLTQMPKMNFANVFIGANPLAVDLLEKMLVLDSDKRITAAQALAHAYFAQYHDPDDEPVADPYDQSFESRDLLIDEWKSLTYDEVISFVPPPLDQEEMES
Procedure: as §1

Lck [2] = target: T2, Lck; assay: Biochemical IC50 on Lck at Km and 1 mM ATP
Procedure: as §1

## Cc1ccc(Nc2ncc3c(n2)N(C)C(=O)N(c2cc(NC(=O)c4ccc5c(c4)NC(=O)[C@H](Cc4ccccc4)N=C5c4ccccc4)ccc2C)C3)cn1 [11a, (S)-3-benzyl-N-(4-methyl-3-(1-methyl-7-((6-methylpyridin-3-yl)amino)-2-oxo-1,4-dihydropyrimido[4,5-d]pyrimidin-3(2H)-yl)phenyl)-2-oxo-5-phenyl-2,3-dihydro-1H-benzo[e][1,4]diazepine-8-carboxamide]
Abl1
  IC50: 189 nM
Lck [1]
  IC50: 8.5 nM
c-Src
  IC50: 20.4 nM
p38a
  IC50: 1830 nM

## Cc1ccc(Nc2ncc3c(n2)N(C)C(=O)N(c2cc(NC(=O)c4ccc5c(c4)NC(=O)[C@H](C)N=C5c4ccccc4)ccc2C)C3)cn1 [11c, (S)-3-methyl-N-(4-methyl-3-(1-methyl-7-((6-methylpyridin-3-yl)amino)-2-oxo-1,4-dihydropyrimido[4,5-d]pyrimidin-3(2H)-yl)phenyl)-2-oxo-5-phenyl-2,3-dihydro-1H-benzo[e][1,4]diazepine-8-carboxamide]
Abl1
  IC50: 4.64 nM
Lck [1]
  IC50: 1.17 nM
c-Src
  IC50: 2.84 nM
p38a
  IC50: 14.9 nM

## CC[C@@H](C)[C@H]1N=C(c2ccccc2)c2ccc(C(=O)Nc3ccc(C)c(N4Cc5cnc(Nc6ccc(C)nc6)nc5N(C)C4=O)c3)cc2NC1=O [11e, (R)-3-((R)-s-butyl)-N-(4-methyl-3-(1-methyl-7-((6-methylpyridin-3-yl)amino)-2-oxo-1,4-dihydropyrimido[4,5-d]pyrimidin-3(2H)-yl)phenyl)-2-oxo-5-phenyl-2,3-dihydro-1H-benzo[e][1,4]diazepine-8-carboxamide]
Abl1
  IC50: 55.2 nM
Lck [1]
  IC50: 10.7 nM
c-Src
  IC50: 12.8 nM
p38a
  IC50: 250 nM

## Cc1ccc(Nc2ncc3c(n2)N(C)C(=O)N(c2cc(NC(=O)c4ccc5c(c4)N(Cc4ccccc4)C(=O)[C@H](C)N=C5c4ccccc4)ccc2C)C3)cn1 [11d, (S)-1-benzyl-3-methyl-N-(4-methyl-3-(1-methyl-7-((6-methylpyridin-3-yl)amino)-2-oxo-1,4-dihydropyrimido[4,5-d]pyrimidin-3(2H)-yl)phenyl)-2-oxo-5-phenyl-2,3-dihydro-1H-benzo[e][1,4]diazepine-8-carboxamide]
Abl1
  IC50: 24.1 nM
Lck [1]
  IC50: 3.42 nM
c-Src
  IC50: 15.2 nM
p38a
  IC50: 101 nM

## Cc1ccc(Nc2ncc3c(n2)N(C)C(=O)N(c2cc(C(=O)N[C@H](C(=O)N4CCC[C@@H]4C(=O)NC(C)(C)C(=O)N[C@@H](CC(C)C)C(=O)N(C)C)C(C)C)ccc2C)C3)cn1 [7b, (R)-N-(1-(((S)-1-(dimethylamino)-4-methyl-1-oxopentan-2-yl)amino)-2-methyl-1-oxopropan-2-yl)-1-((4-methyl-3-(1-methyl-7-((6-methylpyridin-3-yl)amino)-2-oxo-1,4-dihydropyrimido[4,5-d]pyrimidin-3(2H)-yl)benzoyl)-L-valyl)pyrrolidine-2-carboxamide] (X1-V[dP][Aib]L-NMe2)
Abl1
  IC50: 317 nM
Lck [1]
  IC50: 174 nM
c-Src
  IC50: 379 nM
p38a
  IC50: 2050 nM

## Cc1ccc(Nc2ncc3c(n2)N(C)C(=O)N(c2cc(NC(=O)c4ccc5c(c4)N(Cc4ccccc4)C(=O)[C@H](CC(C)C)N=C5c4ccccc4)ccc2C)C3)cn1 [11b, (S)-1-benzyl-3-isobutyl-N-(4-methyl-3-(1-methyl-7-((6-methylpyridin-3-yl)amino)-2-oxo-1,4-dihydropyrimido[4,5-d]pyrimidin-3(2H)-yl)phenyl)-2-oxo-5-phenyl-2,3-dihydro-1H-benzo[e][1,4]diazepine-8-carboxamide]
Abl1
  IC50: 453 nM
Lck [1]
  IC50: 37.3 nM
  selectivity for Lck over c-Src: over 10 fold
c-Src
  IC50: 410 nM
p38a
  IC50: 3430 nM
Lck [2]; ATP conc. 14 µM (Km)
  IC50: 510 nM
Lck [2]; ATP conc. 1 mM
  IC50: > 100000 nM
Lck [2]; IC50 at Km vs 1 mM ATP
  mode of inhibition: ATP competitive kinase inhibitors
